Format in all cases: cell-based
For assay [1], the system named is human epidermoid cancer cell line A-431. The assay is described as follows: MTT cell proliferation assay, human epidermoid (squamous) carcinoma cell line A-431. The settings on record: A-431, 200 μg/ml; for % inhibition / inhibition at 200 µg/mL: 24 hr incubation, vs cells only; for Mean OD: MTT Optical Density at 570 nm; for inhibition at 200 µg/mL: Homo sapiens. As for the experimental part: (§1) The three human skin cancer cell lines were: • 1) Human Melanoma cell line (A-2058). • 2) Human Epidermoid (Squamous) Carcinoma cell line (A-431). • 3) Human Basal Cell Carcinoma cell line (TE 354.T).
(§2) The cell lines were revived from cryostorage and cultured in the presence of the test and reference samples. An MIT assay was then performed on the cultures to determine the effect of the samples on the cell viability and proliferation. The percentage standard error of the mean was assessed and extreme outliers were removed if the SEM%>15. Preliminary statistical significance was assessed with an independent Student t-test at α<0.05 (with and without outliers). The methodology was based on the procedures reported by: • Ahn, N G, Campbell J S (1993). […] Proc Natl Acad Sci. 90: 5143-5147. • Galan-Cobo, A et al (2014). Functional inhibition of aquaporin-3 with a gold-based compound induces blockage of cell proliferation. J Cellul. Physiol. 229: 1787-1801. • Roomi, M W, Kalinovsky, J et al (2013) Effect of a nutrient mixture on matrix metalloproteinase-9 dimers in various human cancer cell lines. Inter 3 Oncol. 44: 936-942. • Huang, H C, Lin, M K et al (2013). Cardenolides and bufadienolide glycosides from Kalanchoe tubiflora and evaluation of cytotoxicity. Planta Medica. 79: 1362-1369. • Tilli, C M L J, Stavast-Kooy, A J W et al (2003). The garlic-derived organosulfur component ajoene decreases basal cell carcinoma tumor size by inducing apoptosis. Arch Dermatol Res. 295: 117-123.
(§3) • 1. Human melanoma cell line (A-2058, ATCC CRL11147) was obtained from ATCC, Bethesda, Md., USA. • 2. Human squamous (epidermoid) carcinoma cell line (A-431, ATCC CRL1555) was obtained from ATCC, Bethesda, Md. USA. • 3. Human basal cell carcinoma cell line (TE 354.T, ATCC CRL7762) was obtained from ATCC, Bethesda, Md., USA. • 4. Dulbecco's Modified Eagle's Medium (DMEM) was obtained from GIBCO (12100-038). 10% Foetal Bovine Serum (FBS), 100 U/ml Penicillin and […] Streptomycin were added before use. • 5. Penicillin-streptomycin solution, stored at −20° C. consisting of 10000 units/ml penicillin and 10 mg/ml streptomycin in 0.9% NaCl was obtained from Sigma (#P-0781). • 6. Trypsin-EDTA solution consisting of 0.25% Trypsin/EDTA was obtained from Invitrogen (#15400054). • 7. Phosphate buffered saline (PBS) was prepared in-house. • 8. Hanks Balanced Salt Solution (HBSS), stored at 4° C. was obtained from GIBCO (#14185-052). • 9. Foetal Bovine Serum (FBS) stored at −20° C. was obtained from GIBCO (#10091-148). • 10. MTT Reagent, 100 mg/vial, was obtained from Sigma (M-2128) and then dissolved in PBS at 10 mg/ml and stored at −20° C. A 5 mg/ml MTT solution was prepared in PBS and stored at 4° C. as the working solution. • 11. MU lysis buffer: 10% sodium dodecyl sulphate (SDS)/45% Dimethyl Formamide was prepared by dissolving 20 g SDS in 100 ml of double-distilled water (DDW), and then adding 90 ml of Dimethyl Formamide to the solution. The pH was adjusted to 4.7 by glacial acetic acid, and DDW added up to a final volume of 200 ml. • 12. 5-Fluorouracil (5-FU) was supplied by Sigma (F-6627). Three working solutions were prepared at 19.5 μg/ml. 6.5 μg/ml and 1.95 μg/ml dissolved in 15% Ethanol/HBSS. Final concentrations were 1.95 μg/ml (15 μM), 0.65 μg/ml (5 μM) and 0.195 μg/ml (1.5 μM).
(§4) • 1. Each of the cell lines was revived from cryostorage. • 2. Following initial propagation using the media described above (Characterisation of Test System, and Medium Preparation), the cell culture was subcultured using trypsin-EDTA. The media was removed and 5ml of the trypsin-EDTA solution added and incubated at 37° C. for 5 min or until all the cells had detached. The trypsin was neutralised by the addition of an equal volume of the relevant medium and centrifugation of the suspension at 300 g (1200 rpm) for 5 min at 4° C. • 3. […]
A general note: Formazan colour is commonly taken as a measure of viable cells.

In assay [2] the test system is human melanoma cell line A-2058. The assay is described as follows: MTT cell proliferation assay, human melanoma cell line A-2058. The settings on record: for Mean OD: MTT Optical Density at 570 nm.
Source text: This example describes the in vitro bioassay used for determining the anti-proliferative activity of test compounds and cyclodextrin-encapsulated propolis complexes against human skin cancer cell lines. The present example tests anti-proliferative efficacy against the human melanoma cell line, A-2058. The cyclodextrin-encapsulated propolis complexes tested are those described in Example 1. The NZ propolis was the same propolis used to manufacture the cyclodextrin complexes CD1-CD3. The Brazilian Green propolis was the same propolis used to manufacture the cyclodextrin complex CD4. The test samples were dissolved in 15% Ethanol (EtOH)/HBSS to make a working solution, which was then diluted 10 times to give a final concentration in the cells of 50 μg/ml unless indicated otherwise.
as §1, §2
as §3, with “Final concentrations were 1.95 μg/ml (15 μM), 0.65 μg/ml (5 μM) and 0.195 μg/ml (1.5 μM).” left out

For assay [3], the system named is human basal carcinoma cell line TE 354.T. The assay is described as follows: MTT cell proliferation assay, human basal cell carcinoma cell line TE 354.T. The settings on record: 200 μg/ml; for % inhibition / inhibition at 200 µg/mL: 24 hr incubation, vs cells only; for Mean OD: MTT Optical Density at 570 nm; for inhibition at 200 µg/mL: Homo sapiens. As for the experimental part: as §1, §2, §3, §4

The mark [4] stands for this setting: A-2058, final conc. 200 μg/ml, 24 hr incubation, vs cells only.
[5] abbreviates: Homo sapiens, A2058, 24 h, A-2058, final conc. 200 μg/ml, 24 hr incubation, vs cells only.

Values joined by “and” are separate entries in the source; they are usually repeats but may differ in a detail not shown here. Equal entries are not always repeated.

Turning to `CC(=O)OC1C(=O)c2c(O)cc(O)cc2OC1c1ccccc1` (stereo not drawn) [Pinobanksin-3-o-acetate, pinobanksin-3-acetate], the figures for the “% inhibition” value in assay [1], in assay [2] (setting [4]) and in assay [3] were “very strong inhibitors of proliferation”, 61.38% and “weak inhibitors of proliferation”, respectively. The “Mean OD” value was 0.0253 in assay [1]; 0.0777 in assay [2] (A-2058, 200 μg/ml); 0.2416 in assay [3]. The figures for the inhibition at 200 µg/mL in assay [1], in assay [2] (setting [5]) and in assay [3] were 90.4%, 61.4% and 10.4%, respectively.

`O=C(O)/C=C/c1ccc(O)cc1` [p-coumaric acid, reference compound]: in assay [2] (A-2058, 200 μg/ml), the “Mean OD” value is 0.2136. The inhibition at 200 µg/mL in assay [2] (setting [5]) came out at 0%.

Regarding `O=C(O)/C=C/C=C/c1ccccc1` [5-phenyl penta-2,4-dienoic acid, 5-phenylpenta-2,4-dienoic acid], the “Mean OD” value in assay [2] (A-2058, 200 μg/ml) was 0.1548. Further, in assay [2] (setting [5]), the inhibition at 200 µg/mL is 23.1%.

As for `O=C1C[C@@H](c2ccccc2)Oc2cc(O)cc(O)c21` [pinocembrin], the “Mean OD” value in assay [2] (A-2058, 200 μg/ml) was determined as 0.0013. Moreover, the “% inhibition” value in assay [2] (setting [4]) is listed as “completely killed all the melanoma cells”. For the same molecule, the inhibition at 200 µg/mL in assay [2] (setting [5]) turned out to be 99.3%.

`O=C(/C=C/c1ccc(O)c(O)c1)OCCc1ccccc1` [CAPE, caffeic acid phenethyl ester, reference compound]: the “Mean OD” value in assay [2] (A-2058, 200 μg/ml) was 0.1018. Moreover, the “% inhibition” value in assay [2] (setting [4]) came out at 49.43%. In addition, the inhibition at 200 µg/mL in assay [2] (setting [5]) came out at 49.4%.

As to `C=C(C)CCOC(=O)/C=C/c1ccc(O)c(O)c1` [Complex 3M3BC, 3-methyl-3-butenyl caffeate], the “% inhibition” value in assay [1] is listed as “very strong inhibitors of proliferation”; in assay [2] (A-2058, final conc. 20 μg/ml, 24 hr incubation, vs cells only), 46.85%; in assay [3], “weak inhibitors of proliferation”. Further, the “Mean OD” value was determined as 0.0475 in assay [1]; 0.1070 in assay [2] (A-2058, 20 μg/ml); 0.2245 in assay [3]. In addition, the results for the inhibition at 200 µg/mL in assay [1] and in assay [3] were 81.9% and 16.7%, respectively. Besides, in assay [2] (Homo sapiens, A2058, 24 h, A-2058, final conc. 20 μg/ml, 24 hr incubation, vs cells only), testing at 20 µg/mL gave an inhibition of 46.8%.

On to `COc1cc(O)c2c(=O)cc(-c3ccccc3)oc2c1` [Tectochrysin], for which, in assay [2] (A-2058, 200 μg/ml), the “Mean OD” value is 0.0272. Moreover, the “% inhibition” value in assay [2] (setting [4]) is 86.5% and 86.48%.

With `COc1cc(/C=C/C(=O)OCc2ccccc2)ccc1O` [Benzyl ferulate], the “Mean OD” value in assay [2] (A-2058, 200 μg/ml) was found to be 0.0040. Also, in assay [2] (setting [4]), the “% inhibition” value is “completely killed all the melanoma cells”. Besides, the inhibition at 200 µg/mL in assay [2] (setting [5]) came to 98%.

A word on the % inhibition: it is the percentage by which the read-out fell short of the control. Low readings indicate little suppression, high ones strong suppression. What is called inhibition is the drop in the measured response relative to a control, in per cent.

Source of the values: US20170209499A1, “Propolis and Extracts Thereof for the Treatment of Skin Cancers and Improvement of Skin Health” (Manuka Health New Zealand Limited, priority 2014, published 2017).
